Data from the NIST ThermoML archive (doi:10.1016/j.jct.2010.10.016).

Legend:
[1] = xn = mol fraction of the nth substance listed; details: 101 kPa, Liquid; for viscosity: Capillary tube (Ostwald / Ubbelohde) method; for mass density: Pycnometric method; for speed of sound: Resonance method
[2] = relative permittivity at various frequencies (dimensionless); xn = mol fraction of the nth substance listed; details: 101 kPa, Liquid, Frequency=3 MHz, AC method

C[N+](=O)[O-] [nitromethane] + CCCCOCCO
x1 = 1
Details | mass density, [1] [kg/m3] | relative permittivity, [2] | speed of sound, [1] [m/s] | viscosity, [1] [mPa·s]
293.15 K | 1137.63 | 37.31 | 1340.2 | 0.648
298.15 K | 1130.62 | 36.52 | 1320.4 | –
298.45 K | – | – | – | 0.619
303.15 K | 1123.6 | 35.66 | 1298.1 | 0.584
308.15 K | 1116.86 | 34.92 | 1281.2 | 0.563
313.15 K | 1109.87 | 34.09 | 1262.8 | 0.545

COCCO [2-methoxyethan-1-ol] + C[N+](=O)[O-]
x2 = 0
Details | mass density, [1] [kg/m3] | relative permittivity, [2] | speed of sound, [1] [m/s] | viscosity, [1] [mPa·s]
293.15 K | 964.88 | 17.38 | 1359.3 | 1.708
298.15 K | 960.29 | 16.96 | 1342.1 | 1.544
303.15 K | 955.77 | 16.56 | 1325.1 | 1.404
308.15 K | 951.19 | 16.16 | 1313.5 | 1.246
313.15 K | 946.21 | 15.77 | 1296.8 | 1.098
